Test results from ChEMBL document CHEMBL1201862, “PubChem BioAssay data set” (2004).
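A five-concentration, 48-hour dose response in 96-well plates underlies each endpoint, interpolated linearly between surrounding concentrations. GI50 marks 50% less growth.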 Calls of active or inactive are those of the source. No stated cut-off is given here; in the data, active = GI50 up to about 1.1 µM and inactive = higher.

Tests used:
Assay in all cases: growth of human tumour cells (NCI), 48 h
CCRF-CEM = test system: CCRF-CEM
OVCAR-8 = test system: OVCAR-8
K562 = test system: K562
OVCAR-3 = test system: OVCAR-3
HL-60 = test system: HL-60
OVCAR-5 = test system: OVCAR-5
PC-3 = test system: PC-3
SR = test system: SR
RPMI-8226 = test system: RPMI-8226
MDA-MB-435 = test system: MDA-MB-435
SN12C = test system: SN12C
A549 = test system: A549
UACC-257 = test system: UACC-257
SF-539 = test system: SF-539
IGROV-1 = test system: IGROV-1
COLO 205 = test system: COLO 205
HCT-116 = test system: HCT-116
SNB-19 = test system: SNB-19
HOP-92 = test system: HOP-92
HCC 2998 = test system: HCC 2998

Structure (SMILES)	GI50 (CCRF-CEM)	GI50 (OVCAR-8)	GI50 (K562)	GI50 (OVCAR-3)	GI50 (HL-60)	GI50 (OVCAR-5)	GI50 (PC-3)	GI50 (SR)	GI50 (RPMI-8226)	GI50 (MDA-MB-435)	GI50 (SN12C)	GI50 (A549)	GI50 (UACC-257)	GI50 (SF-539)	GI50 (IGROV-1)	GI50 (COLO 205)	GI50 (HCT-116)	GI50 (SNB-19)	GI50 (HOP-92)	GI50 (HCC 2998)
Cc1ccnn1CCc1ccc(Cl)cc1Cl	25.4 µM (inactive)	27.9 µM (inactive)	29.1 µM (inactive)	20.5 µM (inactive)	7.69 µM (inactive)	32.4 µM (inactive)	27 µM (inactive)	21.9 µM (inactive)	8.73 µM (inactive)	38.2 µM (inactive)	11.8 µM (inactive)	27.6 µM (inactive)	34.4 µM (inactive)	18.2 µM (inactive)	29.6 µM (inactive)	35 µM (inactive)	47.5 µM (inactive)	28.6 µM (inactive)	–	–
CN(C)N1C(=O)S/C(=C\c2ccc([N+](=O)[O-])cc2)C1=O	55.2 µM (inactive)	99.3 µM (inactive)	–	> 100 µM (inactive)	34 µM (inactive)	> 100 µM (inactive)	> 100 µM (inactive)	57.4 µM (inactive)	–	> 100 µM (inactive)	> 100 µM (inactive)	> 100 µM (inactive)	> 100 µM (inactive)	> 100 µM (inactive)	> 100 µM (inactive)	> 100 µM (inactive)	> 100 µM (inactive)	–	> 100 µM (inactive)	> 100 µM (inactive)
N#Cc1c(-c2ccc([N+](=O)[O-])cc2)c(C#N)c(=O)n(NS(=O)(=O)c2ccccc2)c1O	> 100 µM (inactive)	> 100 µM (inactive)	> 100 µM (inactive)	> 100 µM (inactive)	> 100 µM (inactive)	> 100 µM (inactive)	> 100 µM (inactive)	–	> 100 µM (inactive)	> 100 µM (inactive)	> 100 µM (inactive)	> 100 µM (inactive)	> 100 µM (inactive)	> 100 µM (inactive)	> 100 µM (inactive)	> 100 µM (inactive)	> 100 µM (inactive)	18.5 µM (inactive)	> 100 µM (inactive)	> 100 µM (inactive)
COc1cc(C2C3=C(N=C4SC(C(C)=O)=C(C)N42)c2ccccc2CC3)cc(OC)c1OC (stereo unspecified)	> 100 µM (inactive)	> 100 µM (inactive)	26.4 µM (inactive)	> 100 µM (inactive)	30.8 µM (inactive)	> 100 µM (inactive)	> 100 µM (inactive)	–	13.8 µM (inactive)	57 µM (inactive)	> 100 µM (inactive)	> 100 µM (inactive)	> 100 µM (inactive)	> 100 µM (inactive)	52 µM (inactive)	54.3 µM (inactive)	> 100 µM (inactive)	> 100 µM (inactive)	> 100 µM (inactive)	> 100 µM (inactive)
CCc1ccc(COC(=O)C2=C(C)NC(C)=C(C(=O)OCc3ccc(CC)cn3)C2C2=COCCO2)nc1	16.2 µM (inactive)	32.9 µM (inactive)	18.2 µM (inactive)	19.7 µM (inactive)	22.4 µM (inactive)	28.1 µM (inactive)	16 µM (inactive)	21.8 µM (inactive)	–	19.5 µM (inactive)	> 10 µM (inactive)	25.2 µM (inactive)	20.5 µM (inactive)	14.4 µM (inactive)	39.8 µM (inactive)	12.5 µM (inactive)	16.3 µM (inactive)	18.8 µM (inactive)	20.7 µM (inactive)	19.9 µM (inactive)
Oc1ccc(C(=C(Br)c2ccccc2)c2ccc(O)cc2)cc1	7.52 µM (inactive)	6.58 µM (inactive)	2.78 µM (inactive)	3.15 µM (inactive)	3.39 µM (inactive)	17.3 µM (inactive)	7.16 µM (inactive)	–	4.66 µM (inactive)	1.52 µM (inactive)	5.92 µM (inactive)	4.4 µM (inactive)	12.6 µM (inactive)	6.18 µM (inactive)	4.45 µM (inactive)	3.73 µM (inactive)	4.25 µM (inactive)	5.15 µM (inactive)	10 µM (inactive)	8.65 µM (inactive)
COc1cc(C(=O)C2CC3(CCC2(O)c2cc(OC)c(OC)c(OC)c2)CC(=O)Nc2ccccc2C3=O)cc(OC)c1OC (stereo unspecified)	37.3 µM (inactive)	> 100 µM (inactive)	63.8 µM (inactive)	> 100 µM (inactive)	30.5 µM (inactive)	> 100 µM (inactive)	42.6 µM (inactive)	29.6 µM (inactive)	–	> 100 µM (inactive)	> 100 µM (inactive)	> 100 µM (inactive)	> 100 µM (inactive)	> 100 µM (inactive)	> 100 µM (inactive)	26.5 µM (inactive)	67.1 µM (inactive)	> 100 µM (inactive)	40.4 µM (inactive)	50.7 µM (inactive)
CCOC(=O)c1sc2nc(SC)nc3c2c1NC(=O)CN3c1cccc(F)c1	–	15.5 µM (inactive)	22.4 µM (inactive)	19.7 µM (inactive)	0.491 µM (active)	45 µM (inactive)	17.3 µM (inactive)	70 µM (inactive)	9.12 µM (inactive)	27.5 µM (inactive)	17.2 µM (inactive)	14 µM (inactive)	63.5 µM (inactive)	0.735 µM (active)	61.8 µM (inactive)	17.5 µM (inactive)	18.2 µM (inactive)	20.3 µM (inactive)	22.5 µM (inactive)	–
NCC(=O)N[C@H]1c2ccsc2/C(=N/O)[C@H]1O	> 100 µM (inactive)	> 100 µM (inactive)	> 100 µM (inactive)	> 100 µM (inactive)	> 100 µM (inactive)	> 100 µM (inactive)	> 100 µM (inactive)	> 100 µM (inactive)	–	> 100 µM (inactive)	> 100 µM (inactive)	> 100 µM (inactive)	> 100 µM (inactive)	> 100 µM (inactive)	> 100 µM (inactive)	> 100 µM (inactive)	> 100 µM (inactive)	–	> 100 µM (inactive)	> 100 µM (inactive)
CC1(C)CC(=O)c2c(nc3c4c([nH]c(-c5ccc([N+](=O)[O-])cc5)c24)CC(C)(C)C3)C1	10.1 µM (inactive)	38.3 µM (inactive)	20.1 µM (inactive)	85.5 µM (inactive)	15.6 µM (inactive)	58.1 µM (inactive)	31.7 µM (inactive)	1.07 µM (active)	–	24.7 µM (inactive)	53.3 µM (inactive)	27.6 µM (inactive)	67 µM (inactive)	65.3 µM (inactive)	–	17 µM (inactive)	41.1 µM (inactive)	48.4 µM (inactive)	19.9 µM (inactive)	27.5 µM (inactive)
O=C1Cc2c([nH]c3cc(Br)ccc23)-c2ccccc2N1	2.19 µM (inactive)	18.4 µM (inactive)	4.09 µM (inactive)	19.6 µM (inactive)	58.2 µM (inactive)	9.51 µM (inactive)	3.56 µM (inactive)	21.9 µM (inactive)	–	26.5 µM (inactive)	18.5 µM (inactive)	15.8 µM (inactive)	–	16.2 µM (inactive)	16.4 µM (inactive)	19.2 µM (inactive)	3.4 µM (inactive)	21.9 µM (inactive)	31.1 µM (inactive)	–
